The supplement of paper PMC10307832

Columns and labels:
Test in all cases: relative viability (nuclei count vs DMSO), 5 days (fraction); higher = more cells survive
SW 1573 = system: SW 1573
Procedure, shortened: (§1)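 Relative viability is defined as nuclei in treated wells over nuclei in vehicle wells. Duplicate plates were run and medians reported. Lung cancer cell lines in 1536-well plates were dosed by pin tool one day after seeding, with one drug or with a fixed anchor-drug dose plus five library-drug doses (not always all listed) in √10 steps, and nuclei were counted after 5 days.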

NCI-H3122 = system: NCI-H3122
Procedure, shortened: as §1

HCC-827 = system: HCC-827
Procedure, shortened: as §1

NCI-H2085 = system: NCI-H2085
Procedure, shortened: as §1

LK-2 = system: LK-2
Procedure, shortened: as §1

RERF-LC-KJ = system: RERF-LC-KJ
Procedure, shortened: as §1

LXF-289 = system: LXF-289
Procedure, shortened: as §1

NCI-H23 = system: NCI-H23
Procedure, shortened: as §1

LOU-NH91 = system: LOU-NH91
Procedure, shortened: as §1

LCLC-103H = system: LCLC-103H
Procedure, shortened: as §1

NCI-H1975 = system: NCI-H1975
Procedure, shortened: as §1

NCI-H1666 = system: NCI-H1666
Procedure, shortened: as §1

EMC-BAC-2 = system: EMC-BAC-2
Procedure, shortened: as §1

SW 900 = system: SW 900
Procedure, shortened: as §1

EPLC-272H = system: EPLC-272H
Procedure, shortened: as §1

HCC-78 = system: HCC-78
Procedure, shortened: as §1

NCI-H322M = system: NCI-H322M
Procedure, shortened: as §1

NCI-H2126 = system: NCI-H2126
Procedure, shortened: as §1

LU99A = system: LU99A
Procedure, shortened: as §1

ChaGo-K-1 = system: ChaGo-K-1
Procedure, shortened: as §1

SK-LU-1 = system: SK-LU-1
Procedure, shortened: as §1

NCI-H2405 = system: NCI-H2405
Procedure, shortened: as §1

SMILES: CC1(C)CCC(c2ccc(Cl)cc2)=C(CN2CCN(c3ccc(C(=O)NS(=O)(=O)c4ccc(N[C@H](CCN5CCOCC5)CSc5ccccc5)c(S(=O)(=O)C(F)(F)F)c4)cc3)CC2)C1 [Navitoclax] + O=C(c1cc(Cc2n[nH]c(=O)c3ccccc23)ccc1F)N1CCN(C(=O)C2CC2)CC1 [Olaparib] (partner 8 µM)
- relative viability (SW 1573; first compound 0.005 µM): 0.486
- relative viability (SW 1573; first compound 0.01581 µM): 0.528
- relative viability (SW 1573; first compound 0.05 µM): 0.471
- relative viability (SW 1573; first compound 0.1581 µM): 0.431
- relative viability (SW 1573; first compound 0.5 µM): 0.367
- relative viability (NCI-H3122; first compound 0.005 µM): 0.605
- relative viability (NCI-H3122; first compound 0.01581 µM): 0.577
- relative viability (NCI-H3122; first compound 0.05 µM): 0.576
- relative viability (NCI-H3122; first compound 0.1581 µM): 0.655
- relative viability (NCI-H3122; first compound 0.5 µM): 0.597
- relative viability (HCC-827; first compound 0.005 µM): 0.714
- relative viability (HCC-827; first compound 0.01581 µM): 0.669
- relative viability (HCC-827; first compound 0.05 µM): 0.531
- relative viability (HCC-827; first compound 0.1581 µM): 0.638
- relative viability (HCC-827; first compound 0.5 µM): 0.632
- relative viability (NCI-H2085; first compound 0.005 µM): 0.74
- relative viability (NCI-H2085; first compound 0.01581 µM): 0.864
- relative viability (NCI-H2085; first compound 0.05 µM): 0.596
- relative viability (NCI-H2085; first compound 0.1581 µM): 0.746
- relative viability (NCI-H2085; first compound 0.5 µM): 0.815
- relative viability (LK-2; first compound 0.005 µM): 0.797
- relative viability (LK-2; first compound 0.01581 µM): 0.744
- relative viability (LK-2; first compound 0.05 µM): 0.618
- relative viability (LK-2; first compound 0.1581 µM): 0.726
- relative viability (LK-2; first compound 0.5 µM): 0.798
- relative viability (RERF-LC-KJ; first compound 0.005 µM): 0.887
- relative viability (RERF-LC-KJ; first compound 0.01581 µM): 0.796
- relative viability (RERF-LC-KJ; first compound 0.05 µM): 0.917
- relative viability (RERF-LC-KJ; first compound 0.1581 µM): 0.861
- relative viability (RERF-LC-KJ; first compound 0.5 µM): 0.983
- relative viability (LXF-289; first compound 0.005 µM): 1.01
- relative viability (LXF-289; first compound 0.01581 µM): 1.12
- relative viability (LXF-289; first compound 0.05 µM): 0.88
- relative viability (LXF-289; first compound 0.1581 µM): 0.888
- relative viability (LXF-289; first compound 0.5 µM): 1.08
- relative viability (NCI-H23; first compound 0.005 µM): 0.328
- relative viability (NCI-H23; first compound 0.01581 µM): 0.301
- relative viability (NCI-H23; first compound 0.05 µM): 0.272
- relative viability (NCI-H23; first compound 0.1581 µM): 0.291
- relative viability (NCI-H23; first compound 0.5 µM): 0.343
- relative viability (LOU-NH91; first compound 0.005 µM): 0.909
- relative viability (LOU-NH91; first compound 0.01581 µM): 0.928
- relative viability (LOU-NH91; first compound 0.05 µM): 0.697
- relative viability (LOU-NH91; first compound 0.1581 µM): 0.658
- relative viability (LOU-NH91; first compound 0.5 µM): 0.37
- relative viability (LCLC-103H; first compound 0.005 µM): 0.715
- relative viability (LCLC-103H; first compound 0.01581 µM): 0.817
- relative viability (LCLC-103H; first compound 0.05 µM): 0.729
- relative viability (LCLC-103H; first compound 0.1581 µM): 0.738
- relative viability (LCLC-103H; first compound 0.5 µM): 0.705
- relative viability (NCI-H1975; first compound 0.005 µM): 0.77
- relative viability (NCI-H1975; first compound 0.01581 µM): 0.854
- relative viability (NCI-H1975; first compound 0.05 µM): 0.773
- relative viability (NCI-H1975; first compound 0.1581 µM): 0.813
- relative viability (NCI-H1975; first compound 0.5 µM): 0.755
- relative viability (NCI-H1666; first compound 0.005 µM): 0.749
- relative viability (NCI-H1666; first compound 0.01581 µM): 0.71
- relative viability (NCI-H1666; first compound 0.05 µM): 0.683
- relative viability (NCI-H1666; first compound 0.1581 µM): 0.765
- relative viability (NCI-H1666; first compound 0.5 µM): 0.822
- relative viability (EMC-BAC-2; first compound 0.005 µM): 0.461
- relative viability (EMC-BAC-2; first compound 0.01581 µM): 0.483
- relative viability (EMC-BAC-2; first compound 0.05 µM): 0.456
- relative viability (EMC-BAC-2; first compound 0.1581 µM): 0.434
- relative viability (EMC-BAC-2; first compound 0.5 µM): 0.452
- relative viability (SW 900; first compound 0.005 µM): 0.936
- relative viability (SW 900; first compound 0.01581 µM): 1.01
- relative viability (SW 900; first compound 0.1581 µM): 0.947
- relative viability (SW 900; first compound 0.5 µM): 0.841
- relative viability (EPLC-272H; first compound 0.005 µM): 0.877
- relative viability (EPLC-272H; first compound 0.01581 µM): 0.79
- relative viability (EPLC-272H; first compound 0.05 µM): 0.644
- relative viability (EPLC-272H; first compound 0.1581 µM): 0.714
- relative viability (EPLC-272H; first compound 0.5 µM): 1.18
- relative viability (HCC-78; first compound 0.005 µM): 0.844
- relative viability (HCC-78; first compound 0.01581 µM): 0.776
- relative viability (HCC-78; first compound 0.05 µM): 0.696
- relative viability (HCC-78; first compound 0.1581 µM): 0.925
- relative viability (HCC-78; first compound 0.5 µM): 0.863
- relative viability (NCI-H322M; first compound 0.005 µM): 0.8
- relative viability (NCI-H322M; first compound 0.01581 µM): 0.984
- relative viability (NCI-H322M; first compound 0.05 µM): 0.754
- relative viability (NCI-H322M; first compound 0.1581 µM): 0.725
- relative viability (NCI-H322M; first compound 0.5 µM): 0.934
- relative viability (NCI-H2126; first compound 0.005 µM): 0.912
- relative viability (NCI-H2126; first compound 0.01581 µM): 0.994
- relative viability (NCI-H2126; first compound 0.05 µM): 0.847
- relative viability (NCI-H2126; first compound 0.1581 µM): 0.86
- relative viability (NCI-H2126; first compound 0.5 µM): 0.9
- relative viability (LU99A; first compound 0.005 µM): 0.257
- relative viability (LU99A; first compound 0.01581 µM): 0.275
- relative viability (LU99A; first compound 0.1581 µM): 0.269
- relative viability (LU99A; first compound 0.5 µM): 0.276
- relative viability (ChaGo-K-1; first compound 0.005 µM): 0.445
- relative viability (ChaGo-K-1; first compound 0.01581 µM): 0.472
- relative viability (ChaGo-K-1; first compound 0.05 µM): 0.28
- relative viability (ChaGo-K-1; first compound 0.1581 µM): 0.453
- relative viability (ChaGo-K-1; first compound 0.5 µM): 0.461
- relative viability (SK-LU-1; first compound 0.005 µM): 0.613
- relative viability (SK-LU-1; first compound 0.01581 µM): 0.474
- relative viability (SK-LU-1; first compound 0.05 µM): 0.329
- relative viability (SK-LU-1; first compound 0.1581 µM): 0.424
- relative viability (SK-LU-1; first compound 0.5 µM): 0.338
- relative viability (NCI-H2405; first compound 0.005 µM): 0.803
- relative viability (NCI-H2405; first compound 0.01581 µM): 0.881
- relative viability (NCI-H2405; first compound 0.05 µM): 0.953
- relative viability (NCI-H2405; first compound 0.1581 µM): 0.801
- relative viability (NCI-H2405; first compound 0.5 µM): 0.739
